According to US6399827B1, “Quaternary ammonium phosphate compound and method of preparing same” (SK Chemicals, priority 1997, dated 2002):

What was measured:
Format in all cases: cell-based
[1] = test system: Bacteria; test: Biocidal effect test (MIC), bacteria; conditions: serial dilution, 10^4 cfu/ml, 48 hours at 30° C., nutrient broth, turbidity read visually, range over 8 bacterial strains; for MIC: read-out: Minimal Inhibition Concentration (ppm) Bacteria
Method: (§1) This test was carried out for the purpose of measuring a biocidal effect of the compounds obtained from examples 1, 3 and 4. A test material was diluted using a serial dilution method in a 96-multiwelled plate. 10^4 cfu/ml of microbes were inoculated in the diluted solution. After the microbes were cultivated for 48 hours at 30° C., MIC (Minimal Inhibition Concentration of microorganisms) was visually observed to decide whether or not microbial growth occurred from the turbidity. The growth medium was nutrient broth, DIFCO, and the strains used were as follows.
Enterobacter aerogenes ATCC 13048, Escherichia coli ATCC 11229, Micrococcus luteus ATCC 9431, Pseudomonas aeruginosa ATCC 15442, Shigella sonnei ATCC 9290, Staphylococcus epidermis ATCC 155, Staphylococcus aureus ATCC 6538 and Bacillus subtilis ATCC 6984.

[2] = test system: Yeasts; test: Biocidal effect test (MIC), yeasts; conditions: serial dilution, 10^4 cfu/ml, 48 hours at 30° C., nutrient broth, turbidity read visually, range over 4 yeast strains; for MIC: Saccharomyces cerevisiae, read-out: Minimal Inhibition Concentration (ppm) yeasts
Method: as §1
Candida albicans ATCC 10231, Rhodotorula rubra ATCC 9449, Cryptococcus neoformans ATCC 34144 and Saccharomyces cerevisiae ATCC 9763.

[3] = test system: Fungi; test: Biocidal effect test (MIC), fungi; conditions: serial dilution, 10^4 cfu/ml, 48 hours at 30° C., nutrient broth, turbidity read visually, range over 4 fungal strains; for MIC: read-out: Minimal Inhibition Concentration (ppm) fungi
Method: as §1
Penicillium citrinum ATCC 98404, Trichoderma viridae ATCC 1287, Rhizopus oryzae ATCC 10404 and Aspergillus niger ATCC 9642.

Compound | Minimal Inhibition Concentration (ppm) Bacteria [1] | Minimal Inhibition Concentration (ppm) yeasts [2] | Minimal Inhibition Concentration (ppm) fungi [3] | MIC [1] | MIC [2] | MIC [3]
CC(C)(C)CC(C)(C)c1ccc(OCCOCC[N+](C)(C)Cc2ccccc2)cc1.[Cl-] [A, N-dimethyl-N-[p-(α,α,γ,γ)-tetramethylbutylphenoxy]ethoxy ethyl-N-benzyl chloride] | 12.5˜25 ppm | 12.5˜25 ppm | 25˜100 ppm |  |  | 
CCCCCCCCCCCCCC[N+]1(Cc2ccccc2)CCOCC1.Cl.N.[Cl-] [B, 4-benzyl-4-tetradecyl morpholinium ammonium chloride] |  |  |  | 6.3 to 12.5 µg/mL | 6.3 to 25 µg/mL | 25 to 100 µg/mL
CC(C)(C)CC(C)(C)c1ccc(OCCOCC[N+](C)(C)Cc2ccccc2)cc1.O=P([O-])(O)O [example 1, N-dimethyl-N-[p-(α,α,γ,γ)-tetramethylbutylphenoxy]ethoxy ethyl-N-benzyl ammonium phosphate] | 6.3˜12.5 ppm | 6.3˜12.5 ppm | 25˜100 ppm |  |  | 
CCCCCCCCCCCCCC[N+]1(Cc2ccccc2)CCOCC1.N.O=P([O-])(O)O [example 4, 4-benzyl-4-tetradecyl morpholinium ammonium phosphate] |  |  |  | 6.3 to 12.5 µg/mL | 12.5 to 25 µg/mL | 25 to 100 µg/mL
